This note sets out measurements from patent US4215135A, “Antiinflammatory 2-substituted-1H-phenanthro[9,10-d]imidazoles” (E. I. Du Pont de Nemours and Company, priority 1979, dated 1980).

The test system of the first assay is adjuvant-induced arthritis in rats. As to the kind of experiment: Established adjuvant-induced arthritis in rats (A.A.). The settings on record: Rattus norvegicus, 24 h; oral gavage, 7 daily doses; established adjuvant arthritis; uninjected left hind paw volume one day after last dose; read-out: A.A. ED50% (% paw volume reduction from control). Type of assay: in vivo, Charles River Lewis male rats.
As usually defined, the ED50 is the dose that gives a 50% effect, or the effect in half of the subjects. `CC(C)Cc1ccc(C(C)C(=O)O)cc1` (stereo not drawn) [Ibuprofen, reference compound]: the ED50 turned out to be 100 mg/kg.

As for `CCCCC1C(=O)N(c2ccccc2)N(c2ccccc2)C1=O` [Phenylbutazone, reference compound], the median effective dose (ED50) amounted to 10 mg/kg.

The same assay, now with this note: Rattus norvegicus, po, 24 h, read-out: A.A. ED50% (% paw volume reduction from control).
Regarding `CC(=O)Oc1ccccc1C(=O)O` [Aspirin, reference compound], the ED50 was 305 mg/kg.

With `FC(F)C(F)(F)Sc1nc2c3ccccc3c3ccccc3c2[nH]1` [Example 2, 2-[(1,1,2,2-tetrafluoroethyl)thio]-1H-phenanthro[9,10-d]imidazole], the ED50 was over 25 mg/kg.

With `O=S(=O)(c1nc2c3ccccc3c3ccccc3c2[nH]1)C(F)(F)C(F)F` [Example 3, 2-[(1,1,2,2-Tetrafluoroethyl)sulfonyl]-1H-phenanthro-[9,10-d]-imidazole], the ED50 is 28 mg/kg.

In the case of `Fc1ccc2c(c1)c1cc(F)ccc1c1[nH]c(SC(F)(F)C(F)F)nc21` [Example 7, 6,9-Difluoro-2-[(1,1,2,2-tetrafluoroethyl)thio]-1H-phenanthro-[9,10-d]imidazole], the ED50 was 0.45 mg/kg.

Turning to `O=S(=O)(c1nc2c3ccc(F)cc3c3cc(F)ccc3c2[nH]1)C(F)(F)C(F)F` [Example 8, 6,9-Difluoro-2-[(1,1,2,2-tetrafluoroethyl)sulfonyl]-1H-phenanthro[9,10-d]imidazole], the ED50 came out at 0.8 mg/kg.

For the molecule `COc1ccc2c(c1)c(CC(=O)O)c(C)n2C(=O)c1ccc(Cl)cc1` [Indomethacin, reference compound], the 50% effective dose (ED50) worked out at 0.3 mg/kg.

The test system of a further assay is phenylquinone-induced writhing (pain) in mice. Nature of the assay: Phenylquinone writhing test. Type of assay: in vivo, female white mice. The settings on record: Mus musculus; oral; phenylquinone i.p.; footnote: at 2 hours; read-out: ED50 (effective analgesic dose for 50% of the mice). The procedure: A procedure for detecting and comparing the analgesic activity of compounds in this series and standard drugs for which there is a good correlation with human efficacy is the phenylquinone writhing test.
The phenylquinone writhing test, modified from Siegmund, et al., Proc. Soc. Exp. Biol. Med. 95, 729 (1957), was employed. A test compound suspended in 1% methylcellulose was given orally to fasted (17-21 hours) female white mice, 5-20 animals per double blind test. […] […] The effective analgesic dose for 50% of the mice (ED50) was calculated by the moving average method of Thompson, W. R., Bact. Rev. 11, 115-145 (1947).
In general terms: An intraperitoneal irritant provokes the stretching counted in writhing tests.
Consider `COc1ccc2c(c1)c1cc(OC)ccc1c1[nH]c(S(=O)(=O)C(F)(F)F)nc21` [Example 6, 6,9-Dimethoxy-2-(trifluoromethylsulfonyl)-1H-phenanthro-[9,10-d]imidazole], for which the ED50 came out at 29 mg/kg.
